In article PMC10485003, “Antibiotic hyper-resistance in a class I aminoacyl-tRNA synthetase with altered active site signature motif” (Nature Communications, 2023):

Assays:
Test in all cases: Activation step kinetics of reciprocal-residue mutants, mupirocin inhibition
Type in all cases: biochemical, Priestia (Bacillus) megaterium
Details in all cases: peer review response Table 1, read-out: Ki (Mup)
W130Q/Y126S PmIleRS2 = biological target: T1, W130Q/Y126S PmIleRS2 (Priestia megaterium, UniProt A0A0B6AVD3, W130Q/Y126S)
T1 sequence (A0A0B6AVD3 1-1032 Y126S/W130Q): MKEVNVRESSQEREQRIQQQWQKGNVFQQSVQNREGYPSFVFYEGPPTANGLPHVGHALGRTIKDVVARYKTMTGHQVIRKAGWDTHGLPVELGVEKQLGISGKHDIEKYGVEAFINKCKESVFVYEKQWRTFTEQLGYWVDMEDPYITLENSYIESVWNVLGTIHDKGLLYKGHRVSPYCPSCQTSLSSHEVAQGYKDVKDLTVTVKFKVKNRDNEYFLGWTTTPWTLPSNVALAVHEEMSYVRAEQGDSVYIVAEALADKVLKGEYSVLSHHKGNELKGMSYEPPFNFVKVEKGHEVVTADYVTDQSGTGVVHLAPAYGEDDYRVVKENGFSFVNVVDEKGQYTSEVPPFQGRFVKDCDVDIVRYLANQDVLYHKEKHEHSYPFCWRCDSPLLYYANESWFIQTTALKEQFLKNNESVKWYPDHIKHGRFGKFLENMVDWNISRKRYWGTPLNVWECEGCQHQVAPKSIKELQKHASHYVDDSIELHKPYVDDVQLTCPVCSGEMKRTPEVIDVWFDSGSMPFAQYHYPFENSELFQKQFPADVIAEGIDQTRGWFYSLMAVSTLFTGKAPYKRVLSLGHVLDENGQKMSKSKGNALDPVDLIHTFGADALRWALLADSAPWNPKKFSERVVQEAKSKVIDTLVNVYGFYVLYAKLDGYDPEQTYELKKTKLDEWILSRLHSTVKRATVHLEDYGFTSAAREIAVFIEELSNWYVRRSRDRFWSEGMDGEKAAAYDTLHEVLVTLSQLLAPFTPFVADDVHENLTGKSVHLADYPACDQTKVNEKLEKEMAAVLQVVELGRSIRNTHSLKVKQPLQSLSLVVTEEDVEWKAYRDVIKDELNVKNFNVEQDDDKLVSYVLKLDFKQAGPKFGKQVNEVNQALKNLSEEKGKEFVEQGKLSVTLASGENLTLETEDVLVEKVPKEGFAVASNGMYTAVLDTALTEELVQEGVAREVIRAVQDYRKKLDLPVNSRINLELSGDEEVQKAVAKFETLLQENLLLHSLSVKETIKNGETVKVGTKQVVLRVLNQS
Experimental: (§1) L-Ile and ATP concentrations ranged from 1/10 KM to 10 KM values. When measuring the KI towards one of the substrates, the other was held in saturation (concentrations at least 10 KM). The aliquots of the reaction mixture (1–2.5 μl) were quenched in 2 volumes of 500 mM NaOAc pH = 4.5, 0.1% SDS, and formed ^32P-ATP was separated from the remaining ^32P-PPi by thin-layer chromatography on Polygram CEL 300 PEI UV254 TLC plates (Macherey-Nagel, cat: 801063) using 750 mM KH2PO4 pH=3.5, 4 M urea buffer. Visualization and quantification of the signals was performed using a Typhoon Phosphoimager 5 (General Electric) and accompanying ImageQuant™ TL software (SV: 10.2). The kinetic constants were determined using a global fit option of the competitive inhibition model of GraphPad Prism 6 software (SV: 6.01). All experiments were performed in triplicates. The kcat was determined by dividing the maximal velocity, VM, with the used enzyme concentration. […]
(§2) same catalytic mechanisms. Further, mutation of the natural ALHH motif of DrIleRS2 to ALGH led to the loss of activity, showing that IleRS2 enzymes also require the 1st/3rd His for the activity (i.e. implying the same reaction mechanisms).
(§3) To address this point, we changed the sentence “This allows accommodation of the 3rd His in mut-GVHH-PmIleRS2 in a productive manner without a clash with the adenine […]
(§4) This allows accommodation of the 3 rd His in mut-GVHH-PmIleRS2 without displacement of the adenine moiety. This way, the 3rd His can take over the role of the 1 st His in the canonical reaction mechanism (Fig. 4B). (Page 9, lines 216-218)
(§5) We agree with the reviewer that the active sites of IleRS1 and IleRS2 differ in structural features allowing rearrangement of the α1-helix solely in IleRS2. We were eager t o understand the basis of it and mutated several conserved positions, within and around helix 1, in IleRS1 by introducing the analogous residues found in IleRS2. The same was done for IleRS2. […]
(§6) Table 1. Catalytic activity of the IleRS1 and IleRS2 mutants with exchanged reciprocal residues measured in the activation step […]

[1] = biological target: T2, P53A/G60N/R61K/W130Q/Y126S PmIleRS2 (Priestia megaterium, UniProt A0A0B6AVD3, G60N/P53A/R61K/W130Q/Y126S)
T2 sequence (A0A0B6AVD3 1-1032 P53A/G60N/R61K/Y126S/W130Q): T1 sequence (A0A0B6AVD3 1-1032 Y126S/W130Q)
Experimental: as §1, §2, §3, §4, §5, §6

P53A/G60N/R61K PmIleRS2 = biological target: T3, P53A/G60N/R61K PmIleRS2 (Priestia megaterium, UniProt A0A0B6AVD3, G60N/P53A/R61K)
T3 sequence (A0A0B6AVD3 1-1032 P53A/G60N/R61K): T1 sequence (A0A0B6AVD3 1-1032 Y126S/W130Q)
Experimental: as §1, §2, §3, §4, §5, §6

For `C/C(=C\C(=O)OCCCCCCCCC(=O)O)C[C@@H]1OC[C@H](C[C@@H]2O[C@H]2[C@@H](C)[C@H](C)O)[C@@H](O)[C@H]1O` [mupirocin], which Ki (W130Q/Y126S PmIleRS2) is on record?
The Ki was 3.2 ± 0.1 µM.

What about the Ki [1] of the same compound?
The Ki was 21.1 ± 0.7 µM.

And the Ki (P53A/G60N/R61K PmIleRS2)?
Its Ki is 3.1 ± 0.2 µM.
